# Laboratory results from patent publication US10517870B2, “Aryl substituted bicycle heteroaryl compounds” (Bristol-Myers Squibb Company, priority 2015, dated 2019).
# Like-named read-outs stand apart in the source and are kept apart here.
# How the values were obtained:
# [1] = tested on: SiHa (HPV16+) cells; test: Cell proliferation/viability assay, SiHa cells; format: cell-based; details: Homo sapiens, 96 h, 4 days
# Experimental: (§1) Caski (catalog number CRL-1550), SiHa (catalog number HTB-35), C33A (catalog number HTB-31), Saos-2 (ATCC HTB-85), and Hela (catalog number CCL-2) cells were obtained from the American Type Culture Collection (ATCC). The human cervical carcinoma cell lines Caski. SiHa, Hela and C33A, and the human osteosarcoma cell line Saos-2, and the human keratinocyte cell line HaCaT were cultured in Dulbecco's Modified Eagle Medium (DMEM, Invitrogen catalog number 11965-092) supplemented with 10% fetal bovine serum. The colorectal carcinoma cell line HCT-116 was cultured in Roswell Park Memorial Institute-1640 Medium (Invitrogen catalog number 11875-093) supplemented with 10% FBS. All cells were incubated at 37° C. in a humidified atmosphere with 5% CO2 in air. To establish the SCHPV-18 cell line, one million primary neonatal human foreskin keratinocytes (Invitrogen, catalog no. C-001-5C), cultured in KBM Gold-keratinocvte cell basal medium (Lonza, catalog no. 192060), were electroporated with 5 μg HPV-18 plasmid DNA (ATCC catalog no. 45152D) using the Amaxa Nucleofector II on setting T-007. Cells were co-transfected with 2 μg plasmid pZSGreen1-N1 (Clontech catalog no. 632448) encoding G418 resistance, and cells were selected for four days in 100 μg/ml G418, after which selection was removed. Cells were maintained in culture six months prior to compound testing. Integration of the HPV 18 genome was confirmed by Southern blot. Control cells transfected in parallel with pZSGreen1-N1 alone became senescent four days after selection and the culture could not be expanded. SCHPV-18 cells were maintained in E medium (Fehrmann F, Laimins L A. Human papillomavirus type 31 life cycle: methods for study using tissue culture models. Methods Mol Biol 2005; 292:317-330).
# (§2) For proliferation assays, cells were plated in white polystyrene 96-well plates (Costar catalog number 3917) for CellTiter Glo viability assays or 96-well special optics plates (Costar cat #3614) for CellTiter Blue viability assays. Cells were plated in the appropriate growth medium without antibiotics. Two hours after cell plating, a 200× compound stock diluted in DMSO was added to a final concentration of 0.5%. Plates were incubated at 37° C., for 4 days and then cell viability was assessed using either CellTiter Blue (Promega catalog number G8081) or CellTiter Glo (Promega catalog number G7572) according to the manufacturer's instructions. For the CellTiter Blue viability assay, data was collected using the SpectraMax Gemini EM (Molecular Devices) with an excitation wavelength of 530 nm and emission wavelength of 590 nm. For the CellTiter Glo viability assay, data was collected using the Envision Mulitlabel Reader (Perkin Elmer catalog number 2104-0010). To calculate IC50 and EC50 values, percent inhibition curves were fit using a four-parameter logistic formula [y=A+[…]], where A and B denote minimal and maximal % inhibition, respectively, C is the IC50 value, D is the Hill slope, and x represents compound concentration.
# (§3) Table C, below, sets out the results obtained employing various compounds of the invention tested for their effects on proliferation of such cells. Caski or SiHa cells, transformed by HPV 16, Hela cells, transformed by HPV 18, or HPV-negative control cell lines (Saos-2 or C33a) were treated with various compounds. […] Unlike the HPV-negative Saos-2 or C33a cell lines, the HPV-transformed cell lines rely on the presence of HPV for their continued proliferation. Therefore, a comparison of IC50 values from HPV-transformed cell lines with IC50 values obtained from HPV-negative cell lines can be used to test for compound selectivity.
# [2] = target: T1, PAR4 (Homo sapiens, UniProt Q96RI0); test: PAR4 FLIPR assay (calcium mobilization, antagonist activity) in PAR4-expressing HEK293 cells; format: cell-based
# T1 construct: expressed in transfected cells; host or cells: HEK293 PAR4 Clone 1.2A
# T1 sequence (Q96RI0 18-385): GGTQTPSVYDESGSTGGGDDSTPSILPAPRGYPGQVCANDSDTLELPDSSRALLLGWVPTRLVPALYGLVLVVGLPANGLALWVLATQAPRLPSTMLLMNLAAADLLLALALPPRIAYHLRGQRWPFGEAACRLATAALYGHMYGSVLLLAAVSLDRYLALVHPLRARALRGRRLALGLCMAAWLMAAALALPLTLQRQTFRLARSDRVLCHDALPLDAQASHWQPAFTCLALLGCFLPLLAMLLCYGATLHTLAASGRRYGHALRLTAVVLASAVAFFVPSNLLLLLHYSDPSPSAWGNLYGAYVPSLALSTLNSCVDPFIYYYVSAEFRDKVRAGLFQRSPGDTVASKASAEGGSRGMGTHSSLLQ
# Description: The FLIPR assay is an exemplary in vitro assay for measuring the activity of the PAR4 antagonists of the present invention. In this assay, intracellular calcium mobilization is induced in PAR4 expressing cells by a PAR4 agonist and calcium mobilization is monitored.
# HEK293 cells stably expressing PAR4 were generated by a standard method of transfection of human PAR4 (F2R23) cDNA expression vector and selected based on PAR4 protein expression or mRNA expression. […] These cells also express endogenous PAR1 and can elicit calcium signal upon stimulation with PAR1 agonist peptide. Therefore, the same cells were also used to determine selectivity against PAR1 and agonist activity for both receptors. Cells from HEK293 PAR4 Clone 1.2A (BMS Arctic ID 383940) were propagated and used for calcium mobilization studies.
# FLIPR-based calcium mobilization assay in HEK293 cells was used to measure PAR4 antagonism, agonism, and selectivity against PAR1. The activity of the PAR4 antagonists of the present invention were tested in PAR4 expressing cells by monitoring H-Ala-Phe(4-F)-[…]NH2-induced intracellular calcium mobilization. Counter screens for agonist activity and PAR1 antagonist activity were also performed. Briefly, PAR1/PAR4-expressing HEK293 cells were grown in DMEM (Life Technology, Grand Island, N.Y.) containing 10% heat-inactivated FBS, 1% Penicillin-Streptomycin, 10 μg/mL blasticidin, and 100 μg/mL Zeocin at 37° C. with 5% CO2. Cells were plated overnight prior to the experiment in a black 384-well Purecoat Amine clear bottom plate (Becton Dickinson Biosciences, San Jose, Calif.) at 10,000 cells/well in 30 μL growth medium and incubated in a humidified chamber at 37° C. with 5% CO2 overnight. Prior to compound addition, the cell medium was replaced with 40 μL of IX calcium and magnesium-containing Hank's Balanced Saline Solution (HBSS) (with 20 mM HEPES) and 1:1000 diluted fluorescent calcium indicator (Codex Biosolutions, Gaithersburg, Md.). After a 30 minute incubation period at 37° C., and a further 30 minute incubation and equilibration period at room temperature, 20 μL test compound (diluted in 1×HBSS buffer) was added at various concentrations at 0.17% dimethyl sulfoxide (DMSO) final concentration. Changes in fluorescence intensity were measured using a Functional Drug Screening System (FDSS, Hamamatsu, Japan) to determine agonist activities. The cells were then incubated for 30 minutes at room temperature followed by addition of 20 μL of agonist peptide for antagonist activity measurement. […] Compound potency was derived from 11-point concentration-response curves.
# [3] = tested on: HeLa (HPV18+) cells; test: Cell proliferation/viability assay, HeLa cells; format: cell-based; details: Homo sapiens, 96 h, 4 days
# Experimental: as §1, §2, §3
# [4] = tested on: Caski (HPV16+) cells; test: Cell proliferation/viability assay, Caski cells; format: cell-based; details: Homo sapiens, Ca-Ski, 96 h, 4 days
# Experimental: as §1, §2, §3
# [5] = tested on: Saos-2 (HPV−) cells; test: Cell proliferation/viability assay, Saos-2 cells; format: cell-based; details: Homo sapiens
# Experimental: as §1, §2, §3
# [6] = tested on: C33A (HPV−) cells; test: Cell proliferation/viability assay, C33A cells; format: cell-based; details: Homo sapiens, C-33-A, 96 h
# Experimental: as §1, §2, §3
# [7] = tested on: Caspase-3/-7 activity; test: Apoptosis assay (Caspase-Glo 3/7) in HPV-transformed and HPV-negative cell lines; format: cell-based, human
# Experimental: Apoptosis is a cellular process in which a cascade of events, controlled by proteolytic cleavage events, results in chromatin condensation, blebbing of the cell membrane, fragmentation of cellular DNA, and cell death. Caspases 3 and 7 are enzymes which control initiation of the later stages of apoptosis. Caspase-3/-7 activity can therefore be used as a measure of induction of apoptosis in response to compound treatment. For caspase-3/7 activity assays, cells were plated in 96-well plates (Costar catalog no. 3917) in DMEM with 10% FBS two hours before compound treatment. Cells were treated with compounds in a final concentration of 0.5% DMSO, then the Caspase-Glo 3/7 Assay (Promega catalog no. G8090) was performed according to manufacturer's instructions. […] Luminescence was measured using the EnVision Multilabel Reader (Perkin Elmer catalog no. 2104-0010) with aperture diameter 6 mm, height 4.2 mm, and measurement time of 0.1 second per well.
# Example 15 was tested in an apoptosis assay using three HPV-transformed cell lines (Caski, SiHa, and SCHPV-18) and four HPV-negative cell lines (HCT-116, HaCat, C33a, and Saos-2). The cell lines were treated with a range of concentrations of the compound and induction of Caspase-3/-7 activity was measured relative to vehicle (DMSO)-treated controls.
# [8] = SAOS-2, 96 h, read-out: Saos-2 (HPV−) Proliferation IC50 (μM)
# [9] = read-out: C33A (HPV−) Proliferation IC50 (μM)
SMILES,IC50 [1],IC50 [2],IC50 [3],IC50 [4],"IC50 [5, 8]","IC50 [6, 9]","IC50 ([5]; 96 h, Saos-2, HPV-negative, 4 days, read-out: Saos-2 (HPV−) Proliferation IC50)","increase in Caspase-3/-7 activity ([7]; HPV-positive cell lines (Caski, SiHa, SCHPV-18), relative to vehicle (DMSO)-treated controls)","induction of apoptosis ([7]; HPV-positive versus HPV-negative cell lines (HCT-116, HaCat, C33a, Saos-2))","IC50 ([6]; C33A, HPV-negative, 4 days, read-out: C33A (HPV−) Proliferation IC50)"
"C#Cc1cc(-c2ccc(OC)cc2)c2ncc(OC(F)F)nc2c1 [Example 5, 2-(difluoromethoxy)-7-ethynyl-5-(4-methoxyphenyl)quinoxaline]",4.5 µM,0.25 µM,3.3 µM,3.4 µM,53.1 µM,42.3 µM,–,–,–,–
"COc1ccc(-c2cc(C(F)(F)F)cc3nc(OC(F)F)cnc23)cc1 [Example 8, 2-(difluoromethoxy)-5-(4-methoxyphenyl)-7-(trifluoromethyl)quinoxaline]",4.3 µM,1.5 µM,2.3 µM,2.5 µM,58.3 µM,> 99.5 µM,–,–,–,–
"COc1ccc(-c2cc(C(F)(F)F)cc3nc(OC(F)F)cnc23)cc1Br [Example 15, 5-(3-bromo-4-methoxyphenyl)-2-(difluoromethoxy)-7-(trifluoromethyl)quinoxaline]",12.9 µM,–,18.2 µM,16.5 µM,–,–,> 99.5 µM,greater than 10 fold,selectively induced apoptosis in HPV-positive cell lines,> 99.5 µM
"Cc1cc(-c2cccc(Cl)c2)c2ncc(OC(F)F)nc2c1 [Example 18, 5-(3-chlorophenyl)-2-(difluoromethoxy)-7-methylquinoxaline]",11.6 µM,1.4 µM,13.2 µM,13.9 µM,> 100 µM,> 100 µM,–,–,–,–
Cc1cc(-c2ccc(C(F)(F)F)cc2)c2ncc(OC(F)F)nc2c1 [Example 19],20.5 µM,0.8 µM,29.9 µM,14.6 µM,> 100 µM,> 100 µM,–,–,–,–
"Cc1cc(-c2ccc(OC(F)(F)F)cc2)c2ncc(OC(F)F)nc2c1 [Example 20, 2-(difluoromethoxy)-7-methyl-5-(4-(trifluoromethoxy)phenyl)quinoxaline]",22.1 µM,1.2 µM,45.1 µM,16.4 µM,> 100 µM,83.5 µM,–,–,–,–
"COc1cc(F)cc(-c2cc(C)cc3nc(OC(F)F)cnc23)c1 [Example 21, 2-(difluoromethoxy)-5-(3-fluoro-5-methoxyphenyl)-7-methylquinoxaline]",11.7 µM,2.2 µM,14.7 µM,13.3 µM,> 100 µM,> 100 µM,–,–,–,–
"Cc1cc(-c2ccc(F)c(F)c2)c2ncc(OC(F)F)nc2c1 [Example 22, 2-(difluoromethoxy)-5-(3,4-difluorophenyl)-7-methylquinoxaline]",12.6 µM,1 µM,16.9 µM,15.9 µM,70.6 µM,94.4 µM,–,–,–,–
"Cc1cc(-c2ccc(Cl)cc2Cl)c2ncc(OC(F)F)nc2c1 [Example 23, 5-(2,4-dichlorophenyl)-2-(difluoromethoxy)-7-methylquinoxaline]",9.3 µM,0.012 µM,10.9 µM,12.9 µM,> 100 µM,79.7 µM,–,–,–,–
"Cc1cc(-c2ccc(Cl)c(Cl)c2)c2ncc(OC(F)F)nc2c1 [Example 24, 5-(3,4-dichlorophenyl)-2-(difluoromethoxy)-7-methylquinoxaline]",8.9 µM,3.3 µM,12.7 µM,12.8 µM,> 100 µM,89.4 µM,–,–,–,–
"Cc1cc(-c2cccc(OC(F)(F)F)c2)c2ncc(OC(F)F)nc2c1 [Example 26, 2-(difluoromethoxy)-7-methyl-5-(3-(trifluoromethoxy)phenyl) quinoxaline]",3.8 µM,0.4 µM,4.6 µM,6 µM,> 100 µM,> 100 µM,–,–,–,–
